Results published in patent US20230069749A1, “USE OF POZIOTINIB FOR THE TREATMENT OF CANCERS WITH NRG1 FUSIONS” (Board of Regents, The University of Texas System, priority 2020, published 2023).

Test system: NRG1-DOC4 fusion breast cancer cell line, MDA175-VII
Test: Cell viability of MDA175-VII cells by Cell Titer Glo assay
Type: cell-based
Details: 72 hours; for IC50 values: HER2 targeting antibody alone
Method: The cell viability of NRG1-DOC4 fusion breast cancer cell line, MDA175-VII, was tested with treatment of poziotinib with and without antibodies and antibody drug conjugates (ADCs) targeting HER2 and HER2/HER3 dimerization. Cell viability was determined by the Cell Titer Glo assay.

| IC50 (poziotinib alone) [nM] | Molecule | IC50 values [µg/mL] |
| --- | --- | --- |
|  | T-DM1 | 0.6345 |
| 0.287 | C=CC(=O)N1CCC(Oc2cc3c(Nc4ccc(Cl)c(Cl)c4F)ncnc3cc2OC)CC1 [poziotinib, 1-[4-[4-(3,4-dichloro-2-fluoroanilino)-7-methoxyquinazolin-6-yl]oxypiperidin-1-yl]prop-2-en-1-one] |  |
|  | pertuzumab: recombinant, humanized monoclonal antibody that inhibits dimerization of HER2 | 0.0537 |
